{
  "source": "patent US5648367A",
  "about": "“Aminoalkyloximes” (Hoechst Marion Roussel, Inc., priority 1995, dated 1997)",
  "note": "Where a name gives a salt, the structure may show the parent alone.",
  "data": [
    {"tested_on": "Serotonin Reuptake", "experiment": "in vitro inhibition of serotonin uptake ([3H]-5HT uptake into whole rat brain synaptosomes)", "type": "biochemical, rat (Male CR Wistar rats)", "details": "rat whole brain (minus cerebellum) synaptosomes; 50 nM [3H]-5HT; 5 minutes at 37° C.; pH 7.4; log probit analysis", "protocol": "See, for example, W. K. Goodman, et al., Archives of General Psychiatry, 47, 577 (1990). […] In this assay, a modification of the tests described by A. S. Horn and R. C. A. M. Trace, British Journal of Pharmacology, 51, 399 (1974), A. Nagy and A. V. Delgado-Escueta, Journal of Neurochemistry, 43, 1114 (1984) and P. R. Dunkley, et al., Brain Research, 372, 115 (1986), the following reagents are prepared and employed:\nMale CR Wistar rats (100-125 g)\n3. Sucrose solution: 0.32M sucrose containing 5 mM HEPES and 0.1 mM EDTA; pH to 7.3 using Tris base.\n4. A 0.1 mM stock solution of serotonin creatinine SO4 is made up in 0.01N HCl. This is used to dilute the specific activity of radiolabeled 5HT.\n5. 5-[1,2-^3 H(N)]-Hydroxytryptamine creatinine sulfate (serotonin), specific activity 20-30 Ci/mmol, is used. The final desired concentration of [^3 H]-5HT in the assay is 50 nM. The dilution factor is 0.8. The KHBB is made up to contain 62.5 nM of [^3 H]-5HT.\n6. For most assays, a 0.5 mM stock solution of the test compound is made up initially in either 10 μl of glacial acetic acid, 100 μl DMSO or 10 μl of the recrystallization solvent, to which is added approximately 10 ml of distilled water. Compounds are initially screened in duplicate at 3 concentrations (10^-8, 10^-7 and 10^-6 M) made up in water. […] To ensure consistency, the standard clomipramine is run with each assay.\nMale Wistar rats are decapitated and the brain rapidly removed. Whole brain (minus cerebellum) is weighed and homogenized in 15 volumes of ice cold sucrose solution using a Potter-Elvejhem homogenizer. The following procedures are performed on ice. Homogenization should be done with 4-5 up and down strokes at medium speeds (setting 4.5 to 5) to minimize synaptosome lysis. The homogenate is centrifuged at 1000 g (3000 rpm, Sorvall SS-34 rotor) for 10 minutes at 0°-4° C. The supernatant is removed and approximately 10 ml per tube is carefully layered onto a discontinuous Percoll (Sigma cat# P-1644) gradient: 21% Percoll in sucrose solution at the bottom (15 ml per tube) and 10% Percoll in the middle (10 ml; colored with a few drops of phenol red for visibility).\nThe Percoil gradient tubes are carefully placed into a Beckman SW-28 swinging bucket rotor and spun in a Beckman XL90 ultracentrifuge using the following program: speed, 11,000 rpm (15,000 g) for 30 minutes at 4° C.; slow acceleration and deceleration (acceleration setting 9; deceleration setting 3). Tubes are carefully removed, and the top layer and the top part of the middle (red) layers are discarded using a pasteur pipette. The synaptosomes are located in the white fluffy band at the interface between the 10% and 21% Percoll layers. This is carefully removed, placed in a centrifuge tube, diluted with KHBB and spun at 21,000 g (13,000 rpm, Sorvall SS-34 rotor). The pellet (synaptosomes) is resuspended in KHBB (10 vol per gram original brain wet weight; 1 brain minus cerebellum weighs approximately 1.2 g; 2.5 brains are needed per typical assay).\n20 μl Vehicle or appropriate drug\n200 μl of the tissue suspension are added to each of 24 tubes (at a time) containing the 20 μl of vehicle or drug on ice. Three minutes later, 800 μl of KHBB containing [^3 H]-5HT are added, and tubes are vortexed. The rack containing the 24 tubes is moved from the ice bath to a water bath set at 37° C. The tubes are incubated for 5 minutes under 95% oxygen/5% carbon dioxide. Uptake is terminated by filtration through GF/B filter strips using a Brandel cell harvester (filter strips are presoaked in ice cold filtration buffer). Tubes are washed once with 5 ml of ice cold filtration buffer. Filter disks are placed in scintillation vials to which are added 10 ml of scintillation fluid (EcoScint). Filters are allowed to sit overnight before being counted.\nFor each assay, 3 tubes are incubated with 20 μl of vehicle at both 37° C. and 0° C.", "units": {"IC50": "nM"}, "values": [
      {"smiles": "NCCON=C(CCCn1ccnc1)c1ccc(Cl)cc1", "note": "[1-(4-Chlorophenyl)-4-(1-(1H)-imidazolyl)-1-butanone O-(2-aminoethyl)oxime dihydrochloride]", "IC50": 160},
      {"smiles": "NCCON=C(CCCn1ccnc1)c1ccc(F)cc1", "note": "[1-(4-Fluorophenyl)-4-(1-(1H)-imidazolyl)-1-butanone O-(2-aminoethyl)oxime dihydrochloride]", "IC50": 257},
      {"smiles": "NCCON=C(CCn1ccnc1)c1ccc(C(F)(F)F)cc1", "note": "[3-(1-(1H)-Imidazolyl)-1-(4-trifluoromethylphenyl)-1-propanone O-(2-aminoethyl)oxime dihydrochloride]", "IC50": 164},
      {"smiles": "NCCON=C(CCn1ccnc1)c1ccc(Cl)cc1", "note": "[4'-Chloro-3-(1-(1H)-imidazolyl)propiophenone O-(2-aminoethyl)oxime difumarate]", "IC50": 128},
      {"smiles": "COc1ccc(C(CCn2ccnc2)=NOCCN)cc1", "note": "[4'-Methoxy-3-(1-(1H)-imidazolyl)propiophenone O-(2-aminoethyl)oxime difumarate hydrate]", "IC50": 1280},
      {"smiles": "NCCON=C(CCCn1ccnc1)c1ccc(C(F)(F)F)cc1", "note": "[4-(1-(1H)-Imidazolyl)-1-(4-trifluoromethylphenyl)-1-butanone O-(2-aminoethyl)oxime dihydrochloride]", "IC50": 80},
      {"smiles": "NCCON=C(CCCn1ccnc1)c1ccccc1", "note": "[4-(1-(1H)-Imidazolyl)-1-phenyl-1-butanone O-(2-aminoethyl)oxime dihydrochloride]", "IC50": 1810},
      {"smiles": "Cc1nccn1CCCC(=NOCCN)c1ccccc1", "note": "[4-(2-Methyl-1-(1H)-imidazolyl)-1-phenyl-1-butanone O-(2-aminoethyl)oxime dihydrochloride]", "IC50": 656}
    ]}
  ]
}
